Reference: paper doi:10.1101/2025.10.23.684218v2, “Development of a dual chemical probe for the USP16 and HDAC6 zinc-finger ubiquitin-binding domain” (biorxiv, 2025)
Where two headings read alike, the source gives them in different places.

Experiments:
[1] = target: T1, HDAC6-UBD (HDAC6 1109-1215) (Homo sapiens, UniProt Q9UBN7); assay: SPR, steady state; assay type: binding
T1 sequence (Q9UBN7 1109-1215): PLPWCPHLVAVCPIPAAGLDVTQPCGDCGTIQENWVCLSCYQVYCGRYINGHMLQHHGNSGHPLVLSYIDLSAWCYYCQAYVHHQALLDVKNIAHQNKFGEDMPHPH

USP49 = target: T2, USP49 (Homo sapiens, UniProt Q70CQ1); assay: biochemical; set-up: SPR, steady-state binding to immobilised biotinylated UBD proteins
T2 construct: UBD, residues 1-115
T2 sequence (Q70CQ1 1-688): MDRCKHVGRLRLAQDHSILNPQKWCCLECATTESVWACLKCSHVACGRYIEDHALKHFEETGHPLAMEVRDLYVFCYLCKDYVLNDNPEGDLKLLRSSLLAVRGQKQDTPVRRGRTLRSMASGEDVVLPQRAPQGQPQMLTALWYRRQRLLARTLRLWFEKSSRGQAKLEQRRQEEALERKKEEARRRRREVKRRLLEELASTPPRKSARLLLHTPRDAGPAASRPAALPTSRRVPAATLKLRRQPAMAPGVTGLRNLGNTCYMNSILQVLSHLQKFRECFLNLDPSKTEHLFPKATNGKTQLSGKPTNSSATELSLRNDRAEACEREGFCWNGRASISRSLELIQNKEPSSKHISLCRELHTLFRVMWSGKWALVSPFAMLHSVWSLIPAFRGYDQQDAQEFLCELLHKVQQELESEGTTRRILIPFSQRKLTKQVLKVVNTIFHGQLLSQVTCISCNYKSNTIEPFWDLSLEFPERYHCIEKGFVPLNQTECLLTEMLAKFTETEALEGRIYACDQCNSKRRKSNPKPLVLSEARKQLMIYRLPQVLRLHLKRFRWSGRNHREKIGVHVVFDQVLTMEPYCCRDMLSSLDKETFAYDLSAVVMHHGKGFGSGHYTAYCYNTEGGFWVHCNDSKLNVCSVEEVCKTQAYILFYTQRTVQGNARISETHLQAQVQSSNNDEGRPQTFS

USP5 = target: T3, USP5 (Homo sapiens, UniProt P45974); assay: biochemical; set-up: SPR, steady-state binding to immobilised biotinylated UBD proteins
T3 construct: UBD, residues 171-290
T3 sequence (P45974 1-858): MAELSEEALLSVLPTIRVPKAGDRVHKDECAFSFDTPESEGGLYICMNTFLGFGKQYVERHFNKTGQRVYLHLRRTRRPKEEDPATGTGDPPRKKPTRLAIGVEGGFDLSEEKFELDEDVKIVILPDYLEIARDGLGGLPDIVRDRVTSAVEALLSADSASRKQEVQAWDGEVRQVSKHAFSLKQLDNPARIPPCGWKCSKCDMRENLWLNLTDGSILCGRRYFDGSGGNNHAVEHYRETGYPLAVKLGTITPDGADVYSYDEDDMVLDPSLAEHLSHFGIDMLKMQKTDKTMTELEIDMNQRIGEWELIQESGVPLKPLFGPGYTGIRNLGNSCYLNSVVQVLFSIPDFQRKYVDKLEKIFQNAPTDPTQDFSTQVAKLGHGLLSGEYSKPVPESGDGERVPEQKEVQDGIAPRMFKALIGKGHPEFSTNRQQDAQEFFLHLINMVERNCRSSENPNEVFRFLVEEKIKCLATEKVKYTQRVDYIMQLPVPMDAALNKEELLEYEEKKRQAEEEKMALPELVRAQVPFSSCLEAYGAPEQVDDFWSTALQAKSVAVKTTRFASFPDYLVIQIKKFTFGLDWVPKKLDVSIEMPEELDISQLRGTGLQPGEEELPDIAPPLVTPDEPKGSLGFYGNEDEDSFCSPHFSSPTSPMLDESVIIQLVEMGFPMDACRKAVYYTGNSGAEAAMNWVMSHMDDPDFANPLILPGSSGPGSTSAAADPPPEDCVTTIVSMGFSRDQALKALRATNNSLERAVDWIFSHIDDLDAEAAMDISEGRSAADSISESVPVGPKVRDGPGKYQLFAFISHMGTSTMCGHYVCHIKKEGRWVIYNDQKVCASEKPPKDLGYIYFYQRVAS

USP51 = target: T4, USP51 (Homo sapiens, UniProt Q70EK9); assay: biochemical; set-up: SPR, steady-state binding to immobilised biotinylated UBD proteins
T4 construct: UBD, residues 176-305
T4 sequence (Q70EK9 1-711): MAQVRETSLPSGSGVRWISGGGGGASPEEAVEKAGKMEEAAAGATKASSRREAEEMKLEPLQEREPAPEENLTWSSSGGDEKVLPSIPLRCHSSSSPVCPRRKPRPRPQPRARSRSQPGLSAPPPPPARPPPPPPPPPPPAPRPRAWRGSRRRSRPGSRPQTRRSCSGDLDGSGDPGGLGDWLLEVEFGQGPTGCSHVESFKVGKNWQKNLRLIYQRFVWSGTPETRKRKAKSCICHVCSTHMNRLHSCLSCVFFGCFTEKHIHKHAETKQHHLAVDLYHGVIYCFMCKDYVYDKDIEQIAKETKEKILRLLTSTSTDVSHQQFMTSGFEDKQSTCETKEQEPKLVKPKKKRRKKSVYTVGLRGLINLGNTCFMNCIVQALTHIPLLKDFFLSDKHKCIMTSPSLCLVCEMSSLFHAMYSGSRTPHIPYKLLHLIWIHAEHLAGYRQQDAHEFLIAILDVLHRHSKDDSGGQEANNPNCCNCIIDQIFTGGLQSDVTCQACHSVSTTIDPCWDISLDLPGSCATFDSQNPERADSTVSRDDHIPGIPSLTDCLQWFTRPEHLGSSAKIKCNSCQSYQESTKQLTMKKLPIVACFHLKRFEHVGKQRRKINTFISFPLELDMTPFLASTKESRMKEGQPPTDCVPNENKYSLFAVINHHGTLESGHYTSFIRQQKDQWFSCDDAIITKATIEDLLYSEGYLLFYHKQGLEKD

[2] = read-out: Negative Control KD (nM) SGC-UBD1031N
[3] = read-out: Probe KD (nM) SGC-UBD1031

| Kd [1] [µM] | Kd (USP49; [2]) [nM] | Kd (USP5; [2]) [nM] | Kd (USP51; [2]) [nM] | Kd (USP49; [3]) [nM] | Kd (USP5; [3]) [nM] | Kd (USP51; [3]) [nM] | SMILES |
| --- | --- | --- | --- | --- | --- | --- | --- |
| > 5 | 6700 ± 2100 | > 10000 | > 10000 |  |  |  | C[C@@H](NC(=O)Cn1c(CCC(=O)O)nc2c(Cl)cccc2c1=O)c1c(F)cccc1F [compound 16, (R)-3-(8-chloro-3-(2-((1-(2,6-difluorophenyl)ethyl)amino)-2-oxoethyl)-4-oxo-3,4-dihydroquinazolin-2-yl)propanoic acid] |
| 0.016 |  |  |  | 7500 ± 870 | 2600 ± 1400 | > 10000 | C[C@H](NC(=O)Cn1c(CCC(=O)O)nc2c(Cl)cccc2c1=O)c1c(F)cccc1F [compound 15, (S)-3-(8-chloro-3-(2-((1-(2,6-difluorophenyl)ethyl)amino)-2-oxoethyl)-4-oxo-3,4-dihydroquinazolin-2-yl)propanoic acid] |
